Data taken from PubChem BioAssay AID256 (DTP/NCI, 2004).
Several values for one entry are separate records, joined by “and”; a condition that tells them apart may be missing. Equal entries are not always repeated. Inconclusive results and toxic doses are left out. Rule for the calls: active = survival T/C of 150% or more; inactive = T/C below 125% in these data.

Test system: CD2F1 mice, L1210 leukemia ip, survival T/C
Assay: NCI In Vivo Anticancer Drug Screen. Data for tumor model L1210 Leukemia (intraperitoneal) in CD2F1 (CDF1) mice
Conditions: endpoint: mean survival time, higher = longer survival
How it was run: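 Implant tumor; dose compound or vehicle; measure endpoint in both groups; report treated divided by control.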

[1] = dose: 100.0 mg/kg/injection, schedule: Q01DX001 (ip), vehicle: carboxymethylcellulose (CMC)
[2] = dose: 50.0 mg/kg/injection, schedule: Q01DX009 (ip), vehicle: saline with Tween-80
[3] = dose: 100.0 mg/kg/injection, schedule: Q01DX009 (ip), vehicle: saline with Tween-80
[4] = dose: 100.0 mg/kg/injection, schedule: Q04DX003 (ip), vehicle: saline with Tween-80
[5] = dose: 200.0 mg/kg/injection, schedule: Q01DX009 (ip), vehicle: saline with Tween-80
[6] = dose: 200.0 mg/kg/injection, schedule: Q04DX003 (ip), vehicle: saline with Tween-80
[7] = dose: 100.0 mg/kg/injection, schedule: Q01DX001 (ip), vehicle: saline
[8] = dose: 100.0 mg/kg/injection, schedule: Q04DX003 (ip), vehicle: saline
[9] = dose: 200.0 mg/kg/injection, schedule: Q01DX001 (ip), vehicle: saline
[10] = dose: 400.0 mg/kg/injection, schedule: Q01DX001 (ip), vehicle: saline
[11] = dose: 50.0 mg/kg/injection, schedule: Q04DX002 (ip), vehicle: saline with Tween-80
[12] = dose: 100.0 mg/kg/injection, schedule: Q04DX002 (ip), vehicle: saline with Tween-80
[13] = dose: 200.0 mg/kg/injection, schedule: Q04DX002 (ip), vehicle: saline with Tween-80
[14] = dose: 100.0 mg/kg/injection, schedule: Q01DX001 (ip), vehicle: Klucel (hydroxypropylcellulose) (HPC)
[15] = dose: 200.0 mg/kg/injection, schedule: Q01DX001 (ip), vehicle: Klucel (hydroxypropylcellulose) (HPC)
[16] = dose: 400.0 mg/kg/injection, schedule: Q01DX009 (ip), vehicle: saline with Tween-80
[17] = dose: 400.0 mg/kg/injection, schedule: Q04DX003 (ip), vehicle: saline with Tween-80

Measured: T/C

CN(C)Cc1ncccc1O
inactive: dose: 50.0 mg/kg/injection, schedule: Q01DX009 (ip), vehicle: suspension in saline 110 % of control | dose: 100.0 mg/kg/injection, schedule: Q01DX009 (ip), vehicle: suspension in saline 108 % of control | dose: 200.0 mg/kg/injection, schedule: Q01DX009 (ip), vehicle: suspension in saline 112 % of control

CCN(CC)c1ncnc2nncnc12
inactive: [1] 101 % of control | dose: 200.0 mg/kg/injection, schedule: Q01DX001 (ip), vehicle: carboxymethylcellulose (CMC) 96 % of control

COc1ccc([Se][Se]c2ccc(OC)cc2NC(C)=O)c(NC(C)=O)c1
inactive: [2] 97 % of control | [3] 101 % of control | [4] 89 % of control | [5] 105 % of control | [6] 87 % of control

CCOC(=O)Cc1c(C)[nH]c2c(C)ccc(C)c12
inactive: dose: 100.0 mg/kg/injection, schedule: Q01DX001 (ip), vehicle: other 95 % of control

Cc1cc(C=O)c(C)n1-c1ccc(C(=O)O)cc1
inactive: [2] 101 % of control | [3] 93 % of control | [5] 101 % of control

COc1ccc(N=C(N)N=C(N)N)cc1
inactive: dose: 25.0 mg/kg/injection, schedule: Q01DX009 (ip), vehicle: saline with Tween-80 102 % of control | [2] 96 % of control | [3] 106 % of control

CC(C)=CC(C)=Nc1ccccc1
inactive: [7] 90 % of control | [8] 102 % of control | [9] 96 % of control | dose: 200.0 mg/kg/injection, schedule: Q04DX003 (ip), vehicle: saline 96 % of control | [10] 98 % of control | dose: 400.0 mg/kg/injection, schedule: Q04DX003 (ip), vehicle: saline 104 % of control

O=N[O-].O=N[O-].[Co].[NH-]CC[NH-].[NH-]CC[NH-]
inactive: [11] 93 % of control | dose: 75.0 mg/kg/injection, schedule: Q01DX001 (ip), vehicle: saline 103 % of control | [12] 100 % of control | dose: 150.0 mg/kg/injection, schedule: Q01DX001 (ip), vehicle: saline 113 % of control | [13] 96 % of control

N/C(=N/N=C/c1ccco1)N[N+](=O)[O-]
inactive: dose: 50.0 mg/kg/injection, schedule: Q01DX001 (ip), vehicle: Klucel (hydroxypropylcellulose) (HPC) 97 % of control | [14] 94 % of control | [15] 97 % of control

O=C(c1ccccc1CO)N1CCOCC1
inactive: dose: 12.5 mg/kg/injection, schedule: Q04DX002 (ip), vehicle: saline 98 % of control | dose: 25.0 mg/kg/injection, schedule: Q04DX002 (ip), vehicle: saline 94 % of control | dose: 50.0 mg/kg/injection, schedule: Q04DX002 (ip), vehicle: saline 94 % of control

CSc1ccc(NC(C)=O)cc1
inactive: [14] 94 % of control | [15] 96 % of control | dose: 400.0 mg/kg/injection, schedule: Q01DX001 (ip), vehicle: Klucel (hydroxypropylcellulose) (HPC) 96 % of control

O=C1NC(=O)C2CC(Br)C(Br)CC12 (stereo not drawn)
inactive: dose: 5.0 mg/kg/injection, schedule: Q01DX001 (ip), vehicle: saline 103 % of control | dose: 10.0 mg/kg/injection, schedule: Q01DX001 (ip), vehicle: saline 101 % of control | dose: 20.0 mg/kg/injection, schedule: Q01DX001 (ip), vehicle: saline 100 % of control

COc1ccc(OC)c(C2N(Cc3ccccc3N(C)C)CCCN2Cc2ccccc2N(C)C)c1
inactive: [4] 92 % of control | [6] 88 % of control

O=C(COc1cccc(Cl)c1)NCc1cccc(NC(=O)Nc2cccc(S(=O)(=O)F)c2)c1
inactive: dose: 100.0 mg/kg/injection, schedule: Q01DX001 (ip), vehicle: saline with Tween-80 91 % of control | dose: 200.0 mg/kg/injection, schedule: Q01DX001 (ip), vehicle: saline with Tween-80 98 % of control | dose: 400.0 mg/kg/injection, schedule: Q01DX001 (ip), vehicle: saline with Tween-80 101 % of control

Nc1ncnc2c1ncn2C1OCC(O)C(O)C1O (stereo not drawn)
inactive: dose: 50.0 mg/kg/injection, schedule: Q01DX001 (ip), vehicle: saline 101 % of control | [7] 102 % of control | [9] 101 % of control | [10] 98 % of control

NC(C(=O)O)C(N)C(=O)O (stereo not drawn)
inactive: [3] 94 % of control | [5] 96 % of control | [16] 96 % of control

O=C(N/N=C/c1ccc(Cl)c(Cl)c1)c1ccccc1
inactive: dose: 100.0 mg/kg/injection, schedule: Q01DX009 (ip), vehicle: Klucel (hydroxypropylcellulose) (HPC) 94 % of control | dose: 100.0 mg/kg/injection, schedule: Q04DX003 (ip), vehicle: Klucel (hydroxypropylcellulose) (HPC) 96 % of control | dose: 200.0 mg/kg/injection, schedule: Q01DX009 (ip), vehicle: Klucel (hydroxypropylcellulose) (HPC) 90 % of control | dose: 200.0 mg/kg/injection, schedule: Q04DX003 (ip), vehicle: Klucel (hydroxypropylcellulose) (HPC) 88 % of control | dose: 400.0 mg/kg/injection, schedule: Q01DX009 (ip), vehicle: Klucel (hydroxypropylcellulose) (HPC) 89 % of control | dose: 400.0 mg/kg/injection, schedule: Q04DX003 (ip), vehicle: Klucel (hydroxypropylcellulose) (HPC) 97 % of control

CN1CCCN(C(=S)S)CC1
inactive: dose: 25.0 mg/kg/injection, schedule: Q04DX003 (ip), vehicle: saline 98 % of control | dose: 50.0 mg/kg/injection, schedule: Q04DX003 (ip), vehicle: saline 103 % of control | [8] 103 % of control

CC(C)(c1cc(Cl)c(OCCO)c(Cl)c1)c1cc(Cl)c(OCCO)c(Cl)c1
inactive: [4] 105 % of control | [6] 102 % of control | [17] 109 % of control

Nc1nc2c(ncn2-c2ccccc2Br)c(=O)[nH]1
inactive: dose: 75.0 mg/kg/injection, schedule: Q01DX001 (ip), vehicle: saline with Tween-80 101 % of control | dose: 150.0 mg/kg/injection, schedule: Q01DX001 (ip), vehicle: saline with Tween-80 100 % of control | dose: 300.0 mg/kg/injection, schedule: Q01DX001 (ip), vehicle: saline with Tween-80 101 % of control

Cc1nc(-c2cccc(Cl)c2)oc1-c1ccccc1
inactive: [12] 115 % of control | [13] 121 % of control

NP(=O)(Oc1cccc2c(OP(N)(=O)N(CCCl)CCCl)cccc12)N(CCCl)CCCl (stereo not drawn)
inactive: dose: 31.25 mg/kg/injection, schedule: Q01DX001 (ip), vehicle: distilled water + Tween-80 95 % of control | dose: 62.5 mg/kg/injection, schedule: Q01DX001 (ip), vehicle: distilled water + Tween-80 95 % of control | dose: 125.0 mg/kg/injection, schedule: Q01DX001 (ip), vehicle: distilled water + Tween-80 95 % of control | dose: 250.0 mg/kg/injection, schedule: Q01DX001 (ip), vehicle: distilled water + Tween-80 97 % of control | dose: 500.0 mg/kg/injection, schedule: Q01DX001 (ip), vehicle: distilled water + Tween-80 95 % of control

C[N+]1(C)CCS(=O)(=O)CC1
inactive: [4] 94 % of control | [6] 95 % of control | [17] 86 % of control

CN1N(C(O)C(Cl)(Cl)Cl)C12CCCCC2 (stereo not drawn)
inactive: dose: 12.0 mg/kg/injection, schedule: Q01DX001 (ip), vehicle: carboxymethylcellulose (CMC) 94 % of control | dose: 25.0 mg/kg/injection, schedule: Q01DX001 (ip), vehicle: carboxymethylcellulose (CMC) 97 % of control | dose: 50.0 mg/kg/injection, schedule: Q01DX001 (ip), vehicle: carboxymethylcellulose (CMC) 95 % of control | [1] 95 % of control

C1CC2C3CCC(C3)C2C1 (stereo not drawn)
inactive: [3] 103 % of control | [5] 102 % of control | [16] 96 % of control

O=[N+]([O-])c1cccc(/C=N\[n+]2ccccc2)c1
inactive: [11] 97 % of control | [12] 100 % of control | [13] 100 % of control

CC(C)NCC(O)COc1cccc2ccccc12 (stereo not drawn)
inactive: dose: 4.0 mg/kg/injection, schedule: Q01DX009 (ip), vehicle: Klucel (hydroxypropylcellulose) (HPC) 94 % of control and 98 % of control and 103 % of control | dose: 8.0 mg/kg/injection, schedule: Q01DX009 (ip), vehicle: Klucel (hydroxypropylcellulose) (HPC) 94 % of control and 95 % of control and 98 % of control | dose: 16.0 mg/kg/injection, schedule: Q01DX009 (ip), vehicle: Klucel (hydroxypropylcellulose) (HPC) 91 % of control and 96 % of control and 101 % of control | dose: 32.0 mg/kg/injection, schedule: Q01DX009 (ip), vehicle: Klucel (hydroxypropylcellulose) (HPC) 87 % of control and 93 % of control and 96 % of control | dose: 64.0 mg/kg/injection, schedule: Q01DX009 (ip), vehicle: Klucel (hydroxypropylcellulose) (HPC) 84 % of control and 102 % of control and 105 % of control | dose: 128.0 mg/kg/injection, schedule: Q01DX009 (ip), vehicle: Klucel (hydroxypropylcellulose) (HPC) 120 % of control
